Assay results reported in ChEMBL document CHEMBL3044815, “Inhibitory effects on nuclear factor B of the Vietnamese freshwater cyanobacteria” (Med Chem Res, 2011).

Legend:
[1] = Inhibition of TNFalpha-induced NF-kappaB activity (unknown origin) expressed in HeLa cells cotreated with compound and 10 ng/ml TNF-alpha for 24 hr by reporter gene assay; assay type: cell-based, Homo sapiens
HeLa = assay: Cytotoxicity against Homo sapiens (human) HeLa cells after 48 hr by MTT assay; assay type: functional, cell-based
[2] = Homo sapiens, HeLa, 24 h, read-out: IC50

Row | SMILES | IC50 ([1]; hela) | Activity (HeLa) | IC50 [1, 2] [µg/mL]
1 | CC[C@H](CC[C@@H](C)[C@H]1CC[C@H]2[C@@H]3CC=C4C[C@@H](O)CC[C@]4(C)[C@H]3CC[C@]12C)C(C)C [BETA-SITOSTEROL] | Not Active | Dose-dependent effect | 
2 | CC1=C(O)C(=O)C=C2C1=CC=C1[C@@]2(C)CC[C@@]2(C)[C@@H]3C[C@](C)(C(=O)O)CC[C@]3(C)CC[C@]12C [CELASTROL] |  | Dose-dependent effect | 0.72
3 | CC(C)[C@@H](C)/C=C/[C@@H](C)[C@H]1CC[C@H]2C3=CC=C4C[C@@H](O)CC[C@]4(C)[C@H]3CC[C@]12C [ERGOSTEROL] |  | Dose-dependent effect | 0.91
4 | CC[C@H](/C=C/[C@@H](C)[C@H]1CC[C@H]2[C@@H]3CC=C4C[C@@H](O)CC[C@]4(C)[C@H]3CC[C@]12C)C(C)C [STIGMASTEROL] | Not Active | Dose-dependent effect | 
